The record followed here is patent US20260021098A1, “METHODS OF TREATMENT OF JAK INHIBITION RESPONSIVE CONDITIONS WITH DEUTERATED JAK INHIBITORS” (Sun Pharmaceutical Industries, Inc., priority 2024, published 2026).

The structures appear in SMILES notation.

The data set can be described thus: Drug-drug interaction study of Compound (I) and itraconazole, plasma concentration data. The conditions noted are these: 12 mg Compound (I) with 200 mg itraconazole (Test), healthy volunteers. The class given is in vivo, human.

`[2H]C1([2H])C([C@@H](CC#N)n2cc(-c3ncnc4[nH]ccc34)cn2)C([2H])([2H])C([2H])([2H])C1([2H])[2H]` [Compound (I), (R)-3-(4-(7H-pyrrolo[2,3-d]pyrimidin-4-yl)-1H-pyrazol-1-yl)-3-(cyclopentyl-2,2,3,3,4,4,5,5-d8) propanenitrile] registered a t1/2 of 4.62 h.
